Reference: ChEMBL document CHEMBL3885861, “Open TG-GATES”

Species on record: Rattus norvegicus
Assay: Open TG-GATES - Regimen: Daily Repeat
Assay type: toxicity, organism-based, Sprague-Dawley
Set-up: regimen Daily Repeat, gender Male, age 6 weeks
Conditions: in vivo, po, route gavage; for APTT / Bas / Eos / Fbg / Hb / Ht / Lym / MCH / MCHC / MCV / Mono / Neu / PT / Plat / RBC / Ret / WBC: tissue Blood; for KIDNEY_L / KIDNEY_R / KIDNEY_TOTAL: tissue Kidney; for LIVER: tissue Liver; for A/G / ALP / ALT / AST / BUN / CRE / Ca / Cl / DBIL / GLC / IP / K / LDH / Na / PL / RALB / TBIL / TC / TG / TP / gamma-GTP: tissue Plasma
[1] = 0 mg/kg, 72 h, dose level Control, time 3 day
[2] = 0 mg/kg, […], dose level Control, time 7 day
[3] = 0 mg/kg, […], dose level Control, time 14 day
[4] = 0 mg/kg, […], dose level Control, time 28 day
[5] = 20 mg/kg, 72 h, dose level Low, time 3 day
[6] = 20 mg/kg, […], dose level Low, time 7 day
[7] = 20 mg/kg, […], dose level Low, time 14 day
[8] = 20 mg/kg, […], dose level Low, time 28 day

Cn1c(=O)c2[nH]cnc2n(C)c1=O.O [THEOPHYLLINE]
TERMINAL_BW [1]: 247 g
APTT [1]: 23.1 s
Bas [1]: 0%
Eos [1]: 0.8%
Fbg [1]: 314.4 mg/dL
Hb [1]: 13.2 g/dL
Ht [1]: 39.5%
Lym [1]: 79.4%
MCH [1]: 21.2 pg
MCHC [1]: 33.5%
MCV [1]: 63.2 fL
Mono [1]: 3.2%
Neu [1]: 15.2%
PT [1]: 15 s
Plat [1]: 114.7 x10_4/uL
RBC [1]: 625.4 x10_4/ul
Ret [1]: 7.3%
WBC [1]: 109 x10_2/uL
KIDNEY_L [1]: 1.1 g
KIDNEY_R [1]: 1.1 g
KIDNEY_TOTAL [1]: 2.2 g
LIVER [1]: 12.2 g
A/G [1]: 1.2
ALP [1]: 1800.8 IU/L
ALT [1]: 48.4 IU/L
AST [1]: 71.4 IU/L
BUN [1]: 17.6 mg/dL
CRE [1]: 0.2 mg/dL
Ca [1]: 10.7 mg/dL
Cl [1]: 105.8 meq/L
DBIL [1]: 0 mg/dL
GLC [1]: 203.8 mg/dL
IP [1]: 8.5 mg/dL
K [1]: 4.3 meq/L
LDH [1]: 183.6 IU/L
Na [1]: 141 meq/L
PL [1]: 156.6 mg/dL
RALB [1]: 3 g/dL
TBIL [1]: 0 mg/dL
TC [1]: 85 mg/dL
TG [1]: 96.2 mg/dL
TP [1]: 5.5 g/dL
gamma-GTP [1]: 1.6 IU/L
TERMINAL_BW [2]: 278.6 g
TERMINAL_BW [3]: 330.3 g
TERMINAL_BW [4]: 378.5 g
APTT [2]: 21.8 s
Bas [2]: 0%
Eos [2]: 1%
Fbg [2]: 305.4 mg/dL
Hb [2]: 13.9 g/dL
Ht [2]: 40.5%
Lym [2]: 77.8%
MCH [2]: 20.9 pg
MCHC [2]: 34.2%
MCV [2]: 61.2 fL
Mono [2]: 2.8%
Neu [2]: 17.4%
PT [2]: 15.8 s
Plat [2]: 112 x10_4/uL
RBC [2]: 662 x10_4/ul
Ret [2]: 6%
WBC [2]: 113.8 x10_2/uL
APTT [3]: 24.2 s
Bas [3]: 0%
Eos [3]: 0.8%
Fbg [3]: 324.6 mg/dL
Hb [3]: 14.5 g/dL
Ht [3]: 42.5%
Lym [3]: 79.2%
MCH [3]: 21 pg
MCHC [3]: 34.1%
MCV [3]: 61.5 fL
Mono [3]: 3%
Neu [3]: 15.2%
PT [3]: 15.6 s
Plat [3]: 114.6 x10_4/uL
RBC [3]: 691.8 x10_4/ul
Ret [3]: 4.4%
WBC [3]: 138.2 x10_2/uL
APTT [4]: 24.9 s
Bas [4]: 0%
Eos [4]: 1%
Fbg [4]: 303 mg/dL
Hb [4]: 14.8 g/dL
Ht [4]: 42.6%
Lym [4]: 80.2%
MCH [4]: 18.9 pg
MCHC [4]: 34.8%
MCV [4]: 54.6 fL
Mono [4]: 1.6%
Neu [4]: 15%
PT [4]: 16.2 s
Plat [4]: 98.8 x10_4/uL
RBC [4]: 783 x10_4/ul
Ret [4]: 2.7%
WBC [4]: 113.3 x10_2/uL
KIDNEY_L [2]: 1.2 g
KIDNEY_R [2]: 1.3 g
KIDNEY_TOTAL [2]: 2.5 g
KIDNEY_L [3]: 1.3 g
KIDNEY_R [3]: 1.3 g
KIDNEY_TOTAL [3]: 2.7 g
KIDNEY_L [4]: 1.4 g
KIDNEY_R [4]: 1.4 g
KIDNEY_TOTAL [4]: 2.8 g
LIVER [2]: 12.9 g
LIVER [3]: 15.4 g
LIVER [4]: 15.4 g
A/G [2]: 1.2
ALP [2]: 1566.8 IU/L
ALT [2]: 43.8 IU/L
AST [2]: 80.4 IU/L
BUN [2]: 20 mg/dL
CRE [2]: 0.2 mg/dL
Ca [2]: 10.3 mg/dL
Cl [2]: 106.6 meq/L
DBIL [2]: 0 mg/dL
GLC [2]: 212.2 mg/dL
IP [2]: 7.5 mg/dL
K [2]: 4.6 meq/L
LDH [2]: 253.2 IU/L
Na [2]: 141.4 meq/L
PL [2]: 145.2 mg/dL
RALB [2]: 3 g/dL
TBIL [2]: 0 mg/dL
TC [2]: 69.4 mg/dL
TG [2]: 106.2 mg/dL
TP [2]: 5.6 g/dL
gamma-GTP [2]: 1.8 IU/L
A/G [3]: 1.1
ALP [3]: 1434.6 IU/L
ALT [3]: 38.2 IU/L
AST [3]: 68.4 IU/L
BUN [3]: 18.6 mg/dL
CRE [3]: 0.2 mg/dL
Ca [3]: 10.3 mg/dL
Cl [3]: 107 meq/L
DBIL [3]: 0 mg/dL
GLC [3]: 188.2 mg/dL
IP [3]: 7.3 mg/dL
K [3]: 4.4 meq/L
LDH [3]: 184.4 IU/L
Na [3]: 142 meq/L
PL [3]: 149.2 mg/dL
RALB [3]: 3.1 g/dL
TBIL [3]: 0.004 mg/dL
TC [3]: 71.4 mg/dL
TG [3]: 135.4 mg/dL
TP [3]: 5.9 g/dL
gamma-GTP [3]: 2.6 IU/L
A/G [4]: 1
ALP [4]: 1140.2 IU/L
ALT [4]: 38.6 IU/L
AST [4]: 64.8 IU/L
BUN [4]: 18.2 mg/dL
CRE [4]: 0.2 mg/dL
Ca [4]: 10.3 mg/dL
Cl [4]: 106.4 meq/L
DBIL [4]: 0 mg/dL
GLC [4]: 204.6 mg/dL
IP [4]: 6.5 mg/dL
K [4]: 4.1 meq/L
LDH [4]: 132.2 IU/L
Na [4]: 142.4 meq/L
PL [4]: 140.6 mg/dL
RALB [4]: 3.1 g/dL
TBIL [4]: 0.01 mg/dL
TC [4]: 65 mg/dL
TG [4]: 145.6 mg/dL
TP [4]: 6.1 g/dL
gamma-GTP [4]: 2.8 IU/L
TERMINAL_BW [5]: 242.7 g
APTT [5]: 22.4 s
Bas [5]: 0%
Eos [5]: 1%
Fbg [5]: 305.4 mg/dL
Hb [5]: 13.4 g/dL
Ht [5]: 39.6%
Lym [5]: 76.6%
MCH [5]: 21.2 pg
MCHC [5]: 33.8%
MCV [5]: 62.6 fL
Mono [5]: 3.2%
Neu [5]: 18%
PT [5]: 15.5 s
Plat [5]: 119.5 x10_4/uL
RBC [5]: 632.4 x10_4/ul
Ret [5]: 5.9%
WBC [5]: 125.2 x10_2/uL
KIDNEY_L [5]: 1.1 g
KIDNEY_R [5]: 1.1 g
KIDNEY_TOTAL [5]: 2.1 g
LIVER [5]: 10.9 g
A/G [5]: 1.3
ALP [5]: 1574.4 IU/L
ALT [5]: 45.2 IU/L
AST [5]: 71.8 IU/L
BUN [5]: 15.4 mg/dL
CRE [5]: 0.2 mg/dL
Ca [5]: 10.6 mg/dL
Cl [5]: 106.8 meq/L
DBIL [5]: 0 mg/dL
GLC [5]: 194.8 mg/dL
IP [5]: 7.4 mg/dL
K [5]: 4.4 meq/L
LDH [5]: 167.2 IU/L
Na [5]: 142.4 meq/L
PL [5]: 132.6 mg/dL
RALB [5]: 3 g/dL
TBIL [5]: 0.004 mg/dL
TC [5]: 70 mg/dL
TG [5]: 97 mg/dL
TP [5]: 5.5 g/dL
gamma-GTP [5]: 1.6 IU/L
TERMINAL_BW [6]: 271.5 g
TERMINAL_BW [7]: 324.6 g
TERMINAL_BW [8]: 357.5 g
APTT [6]: 24 s
Bas [6]: 0%
Eos [6]: 1%
Fbg [6]: 312.6 mg/dL
Hb [6]: 14.2 g/dL
Ht [6]: 41.1%
Lym [6]: 80%
MCH [6]: 20.9 pg
MCHC [6]: 34.5%
MCV [6]: 60.5 fL
Mono [6]: 2.6%
Neu [6]: 14.4%
PT [6]: 15.4 s
Plat [6]: 111.8 x10_4/uL
RBC [6]: 679 x10_4/ul
Ret [6]: 5.3%
WBC [6]: 121.9 x10_2/uL
APTT [7]: 24.1 s
Bas [7]: 0%
Eos [7]: 1%
Fbg [7]: 333.4 mg/dL
Hb [7]: 14.4 g/dL
Ht [7]: 42.7%
Lym [7]: 80%
MCH [7]: 19.9 pg
MCHC [7]: 33.7%
MCV [7]: 59 fL
Mono [7]: 2.4%
Neu [7]: 14.6%
PT [7]: 15.3 s
Plat [7]: 110.9 x10_4/uL
RBC [7]: 724.8 x10_4/ul
Ret [7]: 4.9%
WBC [7]: 110 x10_2/uL
APTT [8]: 26.7 s
Bas [8]: 0%
Eos [8]: 1%
Fbg [8]: 333.2 mg/dL
Hb [8]: 15.4 g/dL
Ht [8]: 44.6%
Lym [8]: 83.6%
MCH [8]: 18.7 pg
MCHC [8]: 34.4%
MCV [8]: 54.4 fL
Mono [8]: 1.6%
Neu [8]: 12.8%
PT [8]: 15.8 s
Plat [8]: 108.7 x10_4/uL
RBC [8]: 820.8 x10_4/ul
Ret [8]: 2.5%
WBC [8]: 112.5 x10_2/uL
KIDNEY_L [6]: 1.1 g
KIDNEY_R [6]: 1.2 g
KIDNEY_TOTAL [6]: 2.3 g
KIDNEY_L [7]: 1.3 g
KIDNEY_R [7]: 1.3 g
KIDNEY_TOTAL [7]: 2.6 g
KIDNEY_L [8]: 1.3 g
KIDNEY_R [8]: 1.4 g
KIDNEY_TOTAL [8]: 2.8 g
LIVER [6]: 12.4 g
LIVER [7]: 14.3 g
LIVER [8]: 13.8 g
A/G [6]: 1.1
ALP [6]: 1498.6 IU/L
ALT [6]: 40 IU/L
AST [6]: 68.2 IU/L
BUN [6]: 19.2 mg/dL
CRE [6]: 0.2 mg/dL
Ca [6]: 10.3 mg/dL
Cl [6]: 106.2 meq/L
DBIL [6]: 0 mg/dL
GLC [6]: 185.4 mg/dL
IP [6]: 7.3 mg/dL
K [6]: 4.2 meq/L
LDH [6]: 184.6 IU/L
Na [6]: 142.2 meq/L
PL [6]: 150 mg/dL
RALB [6]: 3 g/dL
TBIL [6]: 0.004 mg/dL
TC [6]: 77.2 mg/dL
TG [6]: 106.2 mg/dL
TP [6]: 5.7 g/dL
gamma-GTP [6]: 1.8 IU/L
A/G [7]: 1.2
ALP [7]: 1256.2 IU/L
ALT [7]: 37 IU/L
AST [7]: 64 IU/L
BUN [7]: 17.8 mg/dL
CRE [7]: 0.2 mg/dL
Ca [7]: 10.3 mg/dL
Cl [7]: 106.4 meq/L
DBIL [7]: 0 mg/dL
GLC [7]: 177.6 mg/dL
IP [7]: 7.4 mg/dL
K [7]: 4.2 meq/L
LDH [7]: 140.8 IU/L
Na [7]: 141.8 meq/L
PL [7]: 152.2 mg/dL
RALB [7]: 3.1 g/dL
TBIL [7]: 0.008 mg/dL
TC [7]: 82.4 mg/dL
TG [7]: 92.4 mg/dL
TP [7]: 5.8 g/dL
gamma-GTP [7]: 2.6 IU/L
A/G [8]: 1.1
ALP [8]: 1031.2 IU/L
ALT [8]: 39.8 IU/L
AST [8]: 68.2 IU/L
BUN [8]: 16.6 mg/dL
CRE [8]: 0.2 mg/dL
Ca [8]: 10.1 mg/dL
Cl [8]: 107 meq/L
DBIL [8]: 0 mg/dL
GLC [8]: 192.2 mg/dL
IP [8]: 6.2 mg/dL
K [8]: 3.8 meq/L
LDH [8]: 134.6 IU/L
Na [8]: 143 meq/L
PL [8]: 137.6 mg/dL
RALB [8]: 3.2 g/dL
TBIL [8]: 0.016 mg/dL
TC [8]: 73.6 mg/dL
TG [8]: 97.6 mg/dL
TP [8]: 6.1 g/dL
gamma-GTP [8]: 2 IU/L
